In US6160017A, “Preventives and remedies for ulcerous colitis and/or crohn's disease” (Zaidan Hojin Biseibutsu Kagaku Kenkyu Kai, priority 1997, dated 2000):

Experiments:
[1] = test system: acetic acid-induced rat ulcer models; assay: Effect on acetic acid-induced rat ulcer model; type: in vivo, rat (male Donryu:CRJ); settings: 50 mg/kg i.v.
Procedure: Morbid models were prepared by starving male Donryu:CRJ rats (aged 6 weeks; 9 rats per group) for 24 hours, incising each of their abdomens under etherization to ligate its colon, injecting a 10% aqueous solution (2 ml) of acetic acid into the digestive tract lumen thereof by means of a syringe equipped with a 25 G needle, further injecting air (3 ml) to discharge the acetic acid solution, and then suturing and closing the operated part. Conagenin was intravenously administered to the rats in a dose of 50 mg/kg 24 hours before the preparation of the models and right after the operation. After 24 hours, the rat models were slaughtered to take out their colons and recta. These organs were incised by 10 cm above from the anus to remove their contents. Thereafter, the weight of the organs was measured, and moreover the degree of mucosal disorder was visually observed. The degree of the tissue damage was evaluated using the grades "light", "medium" and "serious".

[2] = test system: trinitrobenzenesulfonic acid (TNBS)-induced rat colitis models; assay: Effect on trinitrobenzenesulfonic acid (TNBS)-induced rat colitis model; type: in vivo, rat (male Wister); settings: for Wet weight of large intestine: conagenin 50 mg/kg i.v., salazosulfapyridine 300 mg/kg p.o., daily, untreated 1.571 ± 0.161, saline 1.723 ± 0.167; for Stage of lesion: number of rats that reached a subacute stage: saline group 4 rats; for Depth of invasion of the ulcer (lamina propria mucosae and submucosal tissue): saline group medium; for Percent change in wet weight against untreated group: untreated 100, TNBS and saline 110
Procedure: Morbid models were prepared by starving male Wister rats (aged 6 weeks; 7 rats per group) for 48 hours, inserting a catheter by 8 cm through the anus of each of the rats under anesthesia with pentobarbital to inject a solution (0.25 ml) with 2,4,6-trinitrobenzenesulfonic acid dissolved in 50% ethanol in a proportion of 80 mg/ml, stopping the anus for about 10 minutes and then allowing it to stand.
Conagenin was intravenously administered to the rats in a dose of 50 mg/kg. Salazosulfapyridine was orally administered as a control agent in a dose of 300 mg/kg. The administration of these test agents was carried out every day from the day before the administration of 2,4,6-trinitrobenzenesulfonic acid to the fourth day after the administration. The rat models were slaughtered at the fifth day after the administration to determine a change in the wet weight of their recta (8 cm) and make a judgment on the basis of the pathological findings thereof.

[3] = Single administration (acute) toxicity test on rats; type: in vivo; settings: in vivo, rat
Procedure: (§1) Conagenin (500 mg/kg) was singly administered intravenously, intraperitoneally, subcutaneously or orally to mice and rats to investigate its toxicity.

Rat = assay: as above; type: in vivo
Procedure: as §1

[4] = Single administration toxicity test on mice; type: in vivo, mouse; settings: in vivo; mouse, intravenous
Procedure: as §1

Mouse = assay: Single administration toxicity test on mice; type: in vivo
Procedure: as §1

rats = assay: 3-month repeated administration toxicity test on rats; type: in vivo, rat (male Wister); settings: 3 months
Procedure: Conagenin (100 mg/kg) was intraperitoneally administered repeatedly for 3 months to male Wister rats (aged 6 weeks; 3 rats per group) to evaluate its toxicity using a group dosed with physiological saline as a control. Tests were made for general symptoms, urinalysis, blood test, blood biochemical test, autopsy, organ weight and pathological test.
The judgment of the test items was conducted in accordance with "Guideline of Toxicity Testing Methods".

patients = settings: double blind test; cited from earlier work
[5] = 24 h before and right after operation, 9 rats per group
[6] = pathological findings of colon, 7 rats per group
[7] = 100 mg/kg i.p., compared with saline control

C[C@@H]([C@@H](C)O)[C@@H](O)C(=O)N[C@@](C)(CO)C(=O)O [Conagenin, (2S)N-[(2R,3S,4R)2,4-dihydroxy-3-methyl-pentanoyl]-2-methylserine]
Number of animals, grade of inflammation Light (1) [1, 5]: 5
Number of animals, grade of inflammation Medium (2) [1, 5]: 3
Number of animals, grade of inflammation Serious (3) [1, 5]: 1
Grade of inflammation, mean ± SD ([1]; control (physiological saline) 2.38 ± 0.67): 1.50 ± 0.73
Suppressing effect on the inflammatory ulcer compared with the control group ([1]; in words): high suppressing effect
Inflammatory change (in words) [2]: exactly the same good result
Therapeutic effect compared with salazosulfapyridine ([2]; conagenin 50 mg/kg i.v. vs salazosulfapyridine 300 mg/kg p.o.): marked therapeutic effect
Wet weight of large intestine [2]: 1.572 ± 0.099 g
Increase in wet weight of the large intestine (in words) ([2]; control (saline) 10%): No increase was observed
Depth of invasion on lamina propria mucosae: number of animals, light [2, 6]: 2
Depth of invasion on lamina propria mucosae: number of animals, no marked change [2, 6]: 5
Depth of invasion on submucosal tissue: number of animals, no marked change [2, 6]: 7
Depth of invasion on tunica muscularis: number of animals, no marked change [2, 6]: 7
Findings of ulceration: number of animals, light [2, 6]: 2
Findings of ulceration: number of animals, no marked change [2, 6]: 5
Inflammatory change: number of animals, light [2, 6]: 1
Inflammatory change: number of animals, no marked change [2, 6]: 6
Stage of lesion: number of rats that reached a subacute stage [2]: 2 rats
Depth of invasion of the ulcer (lamina propria mucosae and submucosal tissue) [2]: light
Percent change in wet weight against untreated group [2]: 100%
LD50 ([3]; ip, intraperitoneal): > 500 mg/kg
LD50 ([3]; sc, subcutaneous): > 500 mg/kg
LD50 ([3]; intravenous): > 500 mg/kg
LD50 ([3]; oral): > 500 mg/kg
LD50 ([3]; acute toxicity, rats, oral, subcutaneous, intraperitoneal and intravenous): ≥ 500 mg/kg
Abnormal finding of general symptoms (Rat; rat, in vivo, 500 mg/kg): no abnormal finding of general symptoms
Death (Rat; rats, single 500 mg/kg): No death was observed
LD50 [4]: > 500 mg/kg
Death (Mouse; mice, single 500 mg/kg): No death was observed
Abnormal finding of general symptoms (Mouse; mouse, in vivo, 500 mg/kg): no abnormal finding of general symptoms
Death (rats; 100 mg/kg i.p.): None
All items tested (general symptoms, urinalysis, blood test, blood biochemical test, autopsy, organ weight, pathological test) (rats; [7]): no significant change was observed
Blood biochemical test (rats; [7]): No marked change
General symptoms (rats; [7]): No marked change
Hematological test (rats; [7]): No marked change
Pathological test (rats; [7]): No marked change
Urinalysis (rats; [7]): No marked change
Development of toxicity (rats; efficacious dose of 100 mg/kg, rats): no development of toxicity was observed

Nc1ccc(O)c(C(=O)O)c1 [mesalazine]
Generalized amelioration rate (patients): 68.8%
Incidence rate of the side effect (patients): 11.5%

O=C(O)c1cc(/N=N/c2ccc(S(=O)(=O)Nc3ccccn3)cc2)ccc1O [salazosulfapyridine]
Wet weight of large intestine [2]: 1.641 ± 0.140 g
Increase in wet weight of the large intestine ([2]; control (saline) 10%): 4%
Depth of invasion on lamina propria mucosae: number of animals, light [2, 6]: 2
Depth of invasion on lamina propria mucosae: number of animals, medium [2, 6]: 2
Depth of invasion on lamina propria mucosae: number of animals, no marked change [2, 6]: 3
Depth of invasion on submucosal tissue: number of animals, light [2, 6]: 2
Depth of invasion on submucosal tissue: number of animals, no marked change [2, 6]: 5
Depth of invasion on tunica muscularis: number of animals, no marked change [2, 6]: 7
Findings of ulceration: number of animals, light [2, 6]: 2
Findings of ulceration: number of animals, medium [2, 6]: 2
Findings of ulceration: number of animals, no marked change [2, 6]: 3
Inflammatory change: number of animals, light [2, 6]: 2
Inflammatory change: number of animals, medium [2, 6]: 1
Inflammatory change: number of animals, no marked change [2, 6]: 4
Stage of lesion: number of rats that reached a subacute stage [2]: 4 rats
Depth of invasion of the ulcer (lamina propria mucosae and submucosal tissue) [2]: medium
Percent change in wet weight against untreated group [2]: 104%
Generalized amelioration rate (patients): 63.5%
Incidence rate of the side effect (patients): 28.1%
